Data on 6 molecules can be found in patent US8735620B2, “Processes for preparing (E)-styrylbenzylsulfone compounds and uses thereof for treating proliferative disorders” (priority 2008, dated 2014).

Like-named read-outs stand apart in the source and are kept apart here. A value given as a limit tells only on which side of the number the result lay.

One series deals with MES-SA. As to the kind of experiment: Tumor cell killing, MES-SA (parental uterine sarcoma). Format: cell-based, human. To be noted: Homo sapiens; parental cell line MES-SA, 96 h dose response; read-out: IC50. As to the method: (§1) A. 6aa inhibits the growth of parental (MES-SA) and Paclitaxel resistant (MES-SA/DX5) cell lines with equal efficiency. The parental uterine sarcoma cells and the MDR positive (MES-SA/DX5) cells were plated into 6 well dishes and treated with various concentrations of 6aa and Paclitaxel for 96 h. The number of viable cells from duplicate plates was determined by trypan blue exclusion. B. Soft Agar Assays. MIA-PaCa-2 cells (1.0×10^5) were plated in soft agar containing various concentrations of each compound in triplicates. After three weeks of growth, the plates were stained for 48 h using 0.05% nitroblue tetrazolium solution. Representative plates were photographed using an Olympus stereoscope mounted with a Sony digital camera system (DKC5000, Sony Inc). Tissue Culture and Reagents: […] Cell lines were purchased from ATCC. Cell lines were routinely grown in DMEM or RPM1 (CellGro) supplemented with 10% fetal bovine serum (Atlas) and 1 unit/mL penicillin-streptomycin (Gibco). A number of tumor cell lines were tested using a dose response end point assay system. The cells were grown in either DMEM or RPMI supplemented with 10% fetal bovine serum and 1 unit/mL Penicillin-Streptomycin solution. […] Cell counts were determined from duplicate wells after 96 h of treatment. The total number of viable cells was determined by trypan blue exclusion.

In the next series the test system is MES-SA/DX5. The series is described as follows: Tumor cell killing, MES-SA/DX5 (multidrug resistant subline). It counts as cell-based, human. As to the method: as §1
The test system of the next series is MIA-PaCa-2 cells. The series is described as follows: Soft agar colony formation, MIA-PaCa-2. It counts as cell-based, human. The method, then:
FIG. 1 Anti-tumor effects of (E)-2,4,6-Trimethoxystyryl-3-Hydroxy-4-Methoxybenzyl Sulfone (6aa). A. 6aa inhibits the growth of parental (MES-SA) and Paclitaxel resistant (MES-SA/DX5) cell lines with equal efficiency. The parental uterine sarcoma cells and the MDR positive (MES-SA/DX5) cells were plated into 6 well dishes and treated with various concentrations of 6aa and Paclitaxel for 96 h. The number of viable cells from duplicate plates was determined by trypan blue exclusion. B. Soft Agar Assays. MIA-PaCa-2 cells (1.0×10^5) were plated in soft agar containing various concentrations of each compound in triplicates. After three weeks of growth, the plates were stained for 48 h using 0.05% nitroblue tetrazolium solution. Representative plates were photographed using an Olympus stereoscope mounted with a Sony digital camera system (DKC5000, Sony Inc).
The soft agar plates were prepared as described by Cosenza, et al (Cosenza, S. C. et al. In Cell Growth, Differentiation and Senescence, Studzinski, G. P., Ed.; Oxford University Press: 1999, 161-176.). Briefly, Noble bottom agar (0.8%) was plated onto 60 mm tissue culture plates. Exponentially growing MIA-PaCa-2 cells (1.0×10^5) were mixed with growth medium with various concentrations of each compound and mixed with Noble agar to a final concentration of 0.4%. Each concentration was plated in triplicate. The top agar was allowed to solidify and the plates were then incubated at 5% CO2 at 37° C. for 3 weeks. The plates were then stained with 0.05% nitroblue tetrazolium (NBT) solution and representative plates were photographed using an Olympus stereoscope mounted with a Sony digital camera system (DKC5000, Sony Inc).

Series [1] relates to BT20 (human breast tumor cell line). The series is described as follows: Cytotoxicity assay (trypan blue exclusion, 96 h), BT20. It counts as cell-based. To be noted: BT20, 96 h treatment.
Description: (§2) Tissue Culture and Reagents: Paclitaxel was purchased from Sigma. Cell lines were purchased from ATCC. Cell lines were routinely grown in DMEM or RPM1 (CellGro) supplemented with 10% fetal bovine serum (Atlas) and 1 unit/mL penicillin-streptomycin (Gibco).
The subject of series [2] is DU145 (human prostate tumor cell line). The series is described as follows: Cytotoxicity assay (trypan blue exclusion, 96 h), DU145. Format: cell-based. The note with it: DU145, 96 h treatment; read-out: DU145 IC50.
Description: as §2
Series [3] relates to H157 (human lung tumor cell line). The series is described as follows: Cytotoxicity assay (trypan blue exclusion, 96 h), H157. The note with it: H157, 96 h treatment; read-out: H157 IC50. Format: cell-based.
Description: as §2
Series [4] concerns DLD1 (human colorectal tumor cell line). As to the kind of experiment: Cytotoxicity assay (trypan blue exclusion, 96 h), DLD1. To be noted: DLD1, 96 h treatment; read-out: DLD1 IC50. It counts as cell-based.
Description: as §2
The subject of series [5] is BT20, DU145, H157 and DLD1 cell lines. The series is described as follows: In vitro cytotoxicity, four human tumor cell lines (SAR discussion). Format: cell-based. The method, then: A number of tumor cell lines were tested using a dose response end point assay system. The cells were grown in either DMEM or RPMI supplemented with 10% fetal bovine serum and 1 unit/mL Penicillin-Streptomycin solution. The tumor cells were plated into 6 well dishes at a cell density of 1.0×10^5 cells/mL/well and compounds were added 24 h later at various concentrations. Cell counts were determined from duplicate wells after 96 h of treatment. The total number of viable cells was determined by trypan blue exclusion.
Following the synthesis of this group of compounds, their in vitro cytotoxicity was assessed using four different human tumor cell lines derived from human breast (BT20), prostate (DU145), lung (H157) and colorectal (DLD1) cancers. […] In a majority of the compounds described here, a methoxy group was kept constant at the 4th position on the aromatic ring of the benzyl moiety.

For a further series, the system named is BT20. As to the kind of experiment: Soft agar colony formation, BT20. Format: cell-based, human. The note with it: BT20, dose dependent.
The test system of the next series is DU145. The series is described as follows: Soft agar colony formation, DU145. It counts as cell-based, human. The note with it: DU145, dose dependent.
In series [6] the test system is BT20 human breast carcinoma xenograft. The series is described as follows: Nude mouse xenograft assay. The method, then: Female athymic (NCr-nu/nu) mice were injected subcutaneously with 0.5-1×10^7 ER-negative human breast tumor cells (BT-20) in 0.2 mL of PBS and the tumors allowed to grow to a size of 100-150 mm^3 in size in about 14 days. The mice were then paired such that the pairs harbored equal sized tumors, which were then used to test the therapeutic effects of 6s and 6ab. A Of the pairs, the animals were treated with either 50 mg/kg 6s following a Q4D schedule or 25 mg/kg using a Q2D schedule or vehicle (DMSO) control. The tumor size was then measured on alternate days in two dimensions and the volume determined using either of the following equations: 1: V=(L×(S^2))π/6); where L is the longer and S is the shorter of the two measurements. B. 6ab was dissolved in PBS and was administered intravenously (50 mg/kg) through the tail vein on every alternate day. Tumor measurements were done as in materials and methods.
Female athymic (NCR-nu/nu, Taconic) nude mice were injected with 0.5-1.0×10^7 BT20 cells subcutaneously in the hind leg using a 1 mL tuberculin syringe equipped with a 271/2 gauge needle. Approximately 14 days later, mice were paired (N=8) and injected with 6ab or Phosphate buffered saline as the vehicle control. The intravenous injections were performed in the mouse tail vein using a 1 mL tuberculin syringe equipped with a 30 gauge needle. The animals were injected following a Q2D×3 schedule. Tumor measurements (two dimensions) were done three times per week using traceable digital vernier calipers (Fisher).

Series [7] is described as follows: Single dose and repeat-dose toxicology studies in mice. Format: in vivo.
Series [8] is described as follows: Acute and repeat toxicity studies in rats. It counts as in vivo. To be noted: intravenous. The method, then:
Single dose and repeat-dose (28 daily injections) toxicology studies were carried out with one water-soluble form of this series (6ab) to assess the safety of intravenously administered drug in rats.

Series [9] deals with mantle cell lymphoma cell lines. The note with it: Park et al Oncogene 2007; cited from earlier work.
Setting [10] is: single dose and repeat-dose (28 daily injections).

`CC(=O)O[C@H]1C(=O)[C@@]2(C)[C@H]([C@H](OC(=O)c3ccccc3)[C@]3(O)C[C@H](OC(=O)[C@H](O)[C@@H](NC(=O)c4ccccc4)c4ccccc4)C(C)=C1C3(C)C)[C@]1(OC(C)=O)CO[C@@H]1C[C@@H]2O` [Paclitaxel, reference compound]: the IC50 with MES-SA stood at 4 nM; in the series with MES-SA/DX5 (Homo sapiens, MDR positive subline MES-SA/DX5, 96 h dose response, read-out: IC50) it was 750 nM. The “fold resistance of MDR positive subline versus parental cell line” value with MES-SA/DX5 (MES-SA/DX5 vs MES-SA) is “greater than 100 fold”. Moreover, in the series with MIA-PaCa-2 cells (positive control, FIG. 1b), the “potency in soft agar relative to 6aa and 6ab” value is “slightly lower potency”.

In the case of `COc1ccc(CS(=O)(=O)/C=C/c2c(OC)cccc2OC)cc1` [6m, (E)-2,6-Dimethoxystyryl-4-Methoxybenzyl sulfone], the IC50 in [1] is 400 nM; in [2] it was 250 nM; in series [3], 700 nM; in series [4], 700 nM. Moreover, in [5] (cytotoxicity assays), the “fold enhancement of activity compared to other disubstituted methoxy sulfones (6j, 6n, 6o and 6p)” value is reported as “greater than 40 fold”.

As to `COc1ccc(CS(=O)(=O)/C=C/c2c(OC)cc(F)cc2OC)cc1` [6v, (E)-2,6-Dimethoxy-4-fluorostyryl-4-Methoxybenzyl sulfone], the IC50 was 750 nM in series [1], 500 nM in series [2], 500 nM in [3] and 750 nM in series [4]. The “cytotoxic activity, SAR statement” value in series [5] is recorded as “either a reduced level or total loss of activity”.

Consider `COc1ccc(CS(=O)(=O)/C=C/c2ccc(F)cc2Cl)cc1` [6g, (E)-2-Chloro-4-fluorostyryl-4-Methoxybenzyl sulfone], for which the half-inhibitory concentration (IC50) in [1] came to 2500 nM; in series [2], 2000 nM; in [3], 2500 nM; in series [4], 4000 nM. Besides, in series [5], the “cytotoxic activity, SAR statement” value was “retained cytotoxic activity”.

For the molecule `COc1ccc(CS(=O)(=O)/C=C/c2cc(C)cc(C)c2)cc1` [6k, (E)-3,5-Dimethylstyryl-4-Methoxybenzyl sulfone], the half-inhibitory concentration (IC50) in series [1], in series [2], in series [3] and in [4] was > 20000 nM each time. In addition, the “cytotoxic activity, SAR statement” value in series [5] was “low level of cytotoxicity”.

“(E)-2,4,6-Trimethoxystyryl-3^1-O-phosphate disodium-4-methoxybenzyl Sulfone [6ab]”: the IC50 in series [1] was 5 nM; in series [2], 2.5 nM; in series [3] it was 7 nM; in [4] it was 7 nM. Besides, the “growth of tumor cells in soft agar” value is on record as “complete inhibition of the growth of tumor cells” in the series with BT20; “complete inhibition of the growth of tumor cells” in the series on DU145; “complete inhibition of the growth of tumor cells” in the series on MIA-PaCa-2 cells (MIA-PaCa-2, dose dependent, three weeks). In series [6] (50 mg/kg IV tail vein, alternate days, 21 days), the “tumor growth in xenograft model” value was “readily inhibited tumor growth”. For the same molecule, in [6] (8 mice per group), the “tumor volume response of the majority of the mice” value was “growth arrest or a gradual reduction in their tumor volume”. Further, the animal deaths result in series [6] (IV, Q2D×3 schedule) is “nor were there any animal deaths”. Also, the body weight loss result in [6] (IV, Q2D×3 schedule) is given as “Body weight loss of more than 10% was not observed”. In addition, the “drug levels in circulation” value is “High, dose dependent, drug levels were sustained in circulation” in series [7] and “High dose dependent drug levels were sustained in circulation” in series [8]. Further, the “hematotoxicity, liver damage, neurotoxicity” value is listed as “did not cause hematotoxicity (no myleosuppression), liver damage or detectable neurotoxicity” in [7] (setting [10]) and “did not cause hematotoxicity (no myleosuppression), liver damage or any detectable neurotoxicity” in [8] (setting [10]). Also, the “cytotoxic activity, SAR statement” value in series [5] (four human tumor cell lines) is recorded as “did not alter the potency”. Besides, in series [9], the “effect on mantle cell lymphoma cell lines” value was “altered the growth and cell cycle status”. The “water solubility” value in “Water solubility” is “highly water-soluble”.

As a reminder, the IC50 is the concentration that inhibits the measured activity by half.
